According to patent US20260137652A1, “Composition Comprising Non-Phosphorylated Tryptamine” (SINTALICA S.R.L., priority 2022, published 2026):

Legend:
[1] = Stability test of psilocin for 24 hours: darkening and psilocin concentration by UHPLC-MS; assay type: physicochemical
Description: The inclusion complex obtained by the resuspension of the freeze-dried complex of (β-carotene and 2-hydroxypropylether p-cyclodextrin in the ratio 1:5 with 3 mg of psilocin dissolved in 1 mL of H2O:EtOH (8:2) solution, was tested to evaluate the inclusion complex stability.
The complex stability was evaluated for 24 hours, under different environmental conditions: • Sample A) 22° C. with no light irradiation • Sample B) 30° C. with no light irradiation • Sample C) 22° C. under UV irradiation (using an UVA lamp A=365 nm) • Sample D) Freeze-dried for 30 days • Sample E) 30° C. under UV irradiation (using an UVA lamp A=365 nm)
All the complex stability tests were compared to a “blank” psilocin solution in H2O:EtOH (8:2).
For evaluating psilocin stability chromatographic analyses were performed using a Nexera X2 UHPLC system coupled to a LCMS-8060 mass spectrometer (Shimadzu, Duisburg, Germany). Data acquisition and processing was performed using the LabSolutions software (version 5.95 Shimadzu). The separation of the various tryptamines was achieved by using an Ascentis Express 90 HILIC column (150×2.1 mm, 2.7 pm) (Merck Life Science) and a mobile phase composed of ammonium formate 0.1 M in water as solvent A, and acetonitrile as solvent B. The gradient program was as follows: 0 min, 90% B; 3 min, 75% B; 10 min, 20% B; 13 min 20% B; 15 min 90% B. The flow rate was 0.5 mL min−1; the column oven was set at 40° C. and the injection volume was 1 pL. Mobile phases were filtered through a 0.45 µm membrane.
The synthetic psilocin was weighed in a volumetric flask and diluted with water: ethanol (8:2) at a concentration of 3000 ppm. Then, it was serially diluted to get a final concentration of 0.10 ppm and analyzed according to the above reported method, in order to verify the stability for 24 hours. At time 0, it was 0.11 ppm. After 24 hours the concentration decreased to 0.04 ppm, showing a concentration loss of 60%.

[2] = Stability test by NMR spectroscopy; assay type: physicochemical; settings: Sample A: 22° C. with no light irradiation
Description: The same specimens were analyzed also by NMR Spectroscopy using Varian 500 MHz spectrometer equipped with a OneNMR probe.
Samples were recorded using a PRESAT pulse sequence suppressing the signal of H2O and EtOH acquiring 128 scans for each spectrum. H2O (4.64 ppm) was used as reference line.
For the NMR analysis, all samples were treated as follow: 530 pL were poured into NMR tube (5 mm i.d.) then coaxial tube was filled with D2O to lock the solvent frequency.

CAR-induced paw edema = assay: CAR-induced paw edema, paw volume by plethysmometer; assay type: in vivo, Sprague-Dawley rats; settings: rats, measured every hour for 6 h after CAR, vs CAR group
Description: (§1) The biological effect of the complex, in comparison with the psilocin solution, against inflammation was tested by their administration to 8-12 weeks old male rats.
(§2) A composition comprising complex according to example 1, wherein the ratio of β-carotene to 2-hydroxypropylether β-cyclodextrin was 1:5, was used. Complexes (psilocin, β-carotene, ascorbic acid with ratio 1:1:1 and 2-hydroxypropylether β-cyclodextrin) containing two different concentrations of psilocin have been tested: • a complex containing 3 mg of psilocin, • a complex containing 10 mg of psilocin.
(§3) The study was performed using male Sprague-Dawley rats (200-250 g; Envigo, Milan, Italy). Food and water were accessible ad libitum. Rats were concurrently subjected to a singular subplantar injection of CAR (100 pL of saline solution containing 1% CAR). Paw edema was measured with a plethysmometer (Ugo Basile, Comerio, Varese, Italy) (Salvemini, D.; Wang, Z.-Q.; Wyatt, P. S.; Bourdon, D. M.; Marino, M. H.; Manning, P. T.; Currie, M. G., “Nitric oxide: A key mediator in the early and late phase of carrageenan-induced rat paw inflammation”, Br. J. Pharmacol. 1996, 118, 829-838) prior to CAR injection and every hour for 6 h. Edema was expressed as the increase in paw volume (mL) after CAR injection relative to the pre-injection value for all animals. Scores were expressed as paw volume difference (mL).
All values are expressed as mean±standard deviation (SD) of N=10 observations. For the in-vivo studies, N represents the number of animals studied. Data were analyzed by one-way ANOVA followed by a Bonferroni post-hoc test for multiple comparisons. A p-value less than 0.05 will be considered significant. #p<0.05 vs. CTR, *p<0.05 vs. CAR, ##p<0.01 vs. CTR, **p<0.01 vs. CAR, ###p<0.001 vs. CTR, ***p<0.001 vs. CAR, °p<0.05 vs. 3 m/Kg, § p<0.05 vs. 10 mg/Kg, °°p<0.01 vs. 3 mg/Kg, §§ p<0.01 vs. 10 mg/Kg, 000 p<0.001 vs. 3 mg/Kg, §§§ p<0.001 vs. 10 mg/Kg.

paw tissues = assay: Histology (H&E staining) of paw tissues after CAR injection; assay type: in vivo, Sprague-Dawley rats; settings: for inflammatory cell infiltration and edema / histological score (H&E): rat paw tissues 6 h after CAR injection
Description: as §1, §2, §3
Paw tissues were collected 6 h after CAR injection. Samples were fixed in 10% formaldehyde solution in phosphate buffer saline (PBS) at room temperature for 24 h, dehydrated by graded series of ethanol and at the list embedded in Paraplast (Sherwood Medical, Mahwah, NJ, USA). Sections of 7-pm thickness were cut with a microtome, deparaffinized with xylene and stained with hematoxylin and eosin (H&E). All sections were examined using an Axiovision Zeiss (Milan, Italy) microscope by two investigators blinded to the treatment conditions. […]
All values are expressed as mean±standard deviation (SD) of N=10 observations. […] Data were analyzed by one-way ANOVA followed by a Bonferroni post-hoc test for multiple comparisons. […]

MPO = MPO analysis (marker of neutrophil infiltration) after CAR injection; assay type: in vivo, Sprague-Dawley rats; settings: rats; for MPO activity: vs CAR group
Description: as §1, §2, §3
The activity of MPO (myeloperoxidase is an enzyme released by neutrophils and used as a marker of neutrophil infiltration) was assessed as previously described (Mullane, K. M.; Kraemer, R.; Smith, B. “Myeloperoxidase activity as a quantitative assessment of neutrophil infiltration into ischemic myocardium.” J. Pharmacol. Methods 1985, 14, 157-167). The rate of change in absorbance was calculated spectrophotometrically at 650 nm. MPO activity was measured in U per gram weight of wet tissue and was quantified as the quantity of enzyme degrading […] of peroxide 1 min at 37° C.
All values are expressed as mean±standard deviation (SD) of N=10 observations. For the in-vivo studies, N represents the number of animals studied. […]

mechanical allodynia = assay: Pain behavior: mechanical allodynia, Von Frey test after CAR injection; assay type: in vivo, Sprague-Dawley rats; settings: rats, 1-6 hours post CAR injection, as compared to CAR group
[3] = Sample B: 30° C. with no light irradiation, 24 hours

Compound: CN(C)CCc1c[nH]c2cccc(O)c12 [psilocin, 4-hydroxy-N,N-dimethyltryptamine]
- darkening ([1]; Sample A: 22° C. with no light irradiation, 24 h): started the darkening process since the first 2 hours of storing
- psilocin concentration after 24 hours ([1]; Sample A: 22° C. with no light irradiation, H2O:EtOH (8:2), after 24 hours): 0.04 ppm
- psilocin concentration at time 0 ([1]; Sample A: 22° C. with no light irradiation, H2O:EtOH (8:2), time 0): 0.11 ppm
- loss of psilocin concentration ([1]; Sample A: 22° C. with no light irradiation, after 24 hours): 60%
- psilocin concentration trend ([1]; Sample A: 22° C. with no light irradiation, time 0 vs after 24 hours): decreased
- darkening [1, 3]: darkening process was observed
- psilocin concentration trend [1, 3]: decreased during 24 hours
- darkening ([1]; Sample C: 22° C. under UV irradiation (365 nm), 24 h): started the darkening process since the first 2 hours of storing
- psilocin concentration trend ([1]; Sample C: 22° C. under UV irradiation (365 nm), 24 hours): decreasing during 24 hours
- darkening ([1]; Sample D: freeze-dried, redissolved 30 days after freeze-drying, ambient temperature, 24 h): started the darkening process since the first 2 hours of storing
- darkening ([1]; Sample E: 30° C. under UV irradiation (365 nm), 24 h): Darkening was observed
- psilocin concentration trend ([1]; Sample E: 30° C. under UV irradiation (365 nm), 24 hours): decreased during 24 hours
- degradation product by NMR compared with the other solutions [2]: less degradation product
- CAR-induced paw edema (paw volume) (CAR-induced paw edema; 3 mg/Kg): reduction of paw volume
- CAR-induced paw edema (paw volume) (CAR-induced paw edema; 3 mg/Kg, listed as Psilocin): significantly reduced
- CAR-induced paw edema (paw volume) (CAR-induced paw edema; 10 mg/Kg): reduction of paw volume
- CAR-induced paw edema (paw volume) (CAR-induced paw edema; 10 mg/Kg, listed as Psilocin): significantly reduced
- inflammatory cell infiltration and edema / histological score (H&E) (paw tissues; 3 mg/Kg): meaningfully decreased
- inflammatory cell infiltration and edema / histological score (H&E) (paw tissues; 10 mg/Kg): meaningfully decreased
- histological anti-inflammatory effect of psilocin as compared to the complex administration (paw tissues; all doses (3 and 10 mg/Kg), rats): better anti-inflammatory effect
- MPO activity (MPO; 3 mg/Kg): reduced the MPO activity
- MPO activity (MPO; 10 mg/Kg): reduced the MPO activity
- MPO activity effect of psilocin as compared to the complex administration (MPO; all doses (3 and 10 mg/Kg)): significant effect
- paw-withdrawal threshold (Von Frey) (mechanical allodynia; 3 mg/Kg): significantly increased
- paw-withdrawal threshold (Von Frey) (mechanical allodynia; 10 mg/Kg): significantly increased
